Source: PMC9822022, “Biginelli Reaction Synthesis of Novel Multitarget-Directed Ligands with Ca^2+ Channel Blocking Ability, Cholinesterase Inhibition, Antioxidant Capacity, and Nrf2 Activation” (Molecules, 2022)
Values joined by “and” are separate entries in the source; they are usually repeats but may differ in a detail not shown here. Identical values can stand only once.

What was measured:
[1] = ORAC-FL antioxidant assay; conditions: for ORAC: Trolox equivalents, mean (n = 3) ± SEM; for times less active than melatonin (ORAC): on average
Description: The antioxidant activity of compounds BIGI 4a-d and BIGI 5a-d was determined by the ORAC-FL method. [29] Their radical scavenging properties are expressed as Trolox equivalents (TE) units.
The antioxidant activity of hybrids BIGI 4a-d and BIGI 5a-d was measured by ORAC-FL assay using fluorescein as a fluorescent probe. Briefly, fluorescein and antioxidant were incubated in a black 96-well microplate (Nunc) for 15 min at 37 °C. 2,2′-Azobis(amidinopropane) dihydrochloride was then added quickly using the built-in injector of a Varioskan Flash plate reader (Thermo Scientific, Waltham, MA, USA). […] All the reactions were made in triplicate and at least three different assays were performed for each sample.

calcium channel = assay: Ca+2 channel blockade, FLIPR Calcium 6 in SH-SY5Y cells; type: cell-based; conditions: KCl/CaCl2 triggered, ± SD
Description: The Ca^+2 channel blockade capacity of compounds BIGI 4a-d and BIGI 5a-d, and nimodipine as standard, at 10 μM concentration was carried out following the usual methodology [28].
The evaluation of the calcium channel blockade of compounds BIGI 4a-d and BIGI 5a-d was carried out using FLIPR Calcium 6 indicator according to previously described protocols [35, 36]. In brief, FLIPR-loaded SH-SY5Y cells were exposed to nimodipine (10 µM, reference inhibitor), DMSO (0.1%, vehicle), or our compounds of interest (10 µM) for 10 min. […] Data were gathered in three independent experiments with eight technical replicates per experiment. Outlier detection by Grubbs’ test was performed and outlying values were excluded from further analysis.

[2] = molecular target: eqBuChE (BuChE from equine serum) (Equus caballus, UniProt P81908); assay: biochemical; conditions: ± SD
[3] = molecular target: T1, hAChE (AChE from human erythrocytes) (Homo sapiens, UniProt P22303); assay: biochemical; type: biochemical; conditions: for IC50: ± SD
T1 construct: AChE from human erythrocytes; purchased Sigma Aldrich; host or cells: human erythrocytes (natural source)
Description: The inhibitory capacity of the compounds on AChE biological activity was evaluated using the spectrometric method of Ellman [27]. Acetyl- or butyrylthiocholine iodide and 5,5-dithiobis- (2-nitrobenzoic) acid (DTNB) were purchased from Sigma Aldrich. […] AChE from human erythrocytes (buffered aqueous solution, ≥500 units/mg protein (BCA), Sigma Aldrich) was diluted in 20 mM HEPES buffer, pH 8, 0.1% Triton X-100, to obtain an enzyme solution with 0.25 unit/mL enzyme activity. In the procedure, 100 µL of 0.3 mM DTNB dissolved in phosphate buffer pH 7.4 was added to the 96-well plate followed by 50 µL of test compound solution and 50 µL of enzyme (0.05 U final). After 5 min of preincubation at 25 °C, the reaction was then initiated by the injection of 50 µL of 10 mM acetyl- or butyrylthiocholine iodide solution. […] Assays were performed in singlicate during three independent tests, with a blank containing all components except acetyl- or butyrylthiocholine in order to account for non-enzymatic reaction. The reaction slopes were compared, and the percent inhibition due to the presence of test compounds was calculated by the following: 100 − (vi/v0 × 100) where vi is the rate calculated in the presence of inhibitor and v0 is the enzyme activity.

Nrf2-ARE [4] = assay: Nrf2/ARE-luciferase reporter cell assay; type: cell-based; conditions: for Induction of the Nrf2 transcriptional pathway: 24 h, 5, 10 and 50 μM (up to 100 μM for BIGI 5d); for CD (concentration required to double the specific luciferase reporter activity): 24 h treatment, means ± SEM
Description: The Nrf2-ARE-activating effect of BIGI 4b, BIGI 4d, BIGI 5b, and BIGI 5d, the most balanced compounds against cholinesterase inhibition, calcium channel blockade, and antioxidant power, was determined in vitro using a cell-based luciferase assay in the AREc32 cell line, which represents a good model for the redox-dependent activation of Nrf2 [31]. TBHQ was used as the positive control.
AREc32 cells were treated over 24 h with increasing concentrations of each compound (5, 10, 50, 100 μM) and then luciferase activity was measured. Preliminarily, the cytotoxicity of compounds against AREc32 cells were evaluated, showing no toxicity until 50 μM for compounds BIGI 4b, BIGI 4d, and BIGI 5b and until 100 μM for compound BIGI 5d.
CD values (i.e., the concentration required to double the specific activity of the luciferase reporter) were calculated to compare the relative potencies.
Treatment of stable ARE-luciferase reporter cells with the tested compounds and evaluation of the luciferase activity: The NRF2/ARE-luciferase reporter HEK293 stable cell line (Signosis, Santa Clara, CA, USA) was maintained in Dulbecco’s MEM high-glucose (DMEM) medium supplemented with 10% FBS and penicillin–streptomycin at 37 °C in 95% air/5% CO2. For treatment, the cells were seeded at a density of 2 × 10^4 per well in 96-well white microtiter plates. After 48 h, the culture medium was replaced with fresh DMEM supplemented with 0.1% FBS containing different concentrations of the tested compounds or DMSO (0.1%) in duplicate. Luciferase activity was measured after 24 h of treatment using the Bright-Glo luciferase assay system (Promega) according to the manufacturer’s instructions.

AREc32 cells = assay: Cytotoxicity against reporter cells (MTT); type: cell-based
Description: […]. Preliminarily, the cytotoxicity of compounds against AREc32 cells were evaluated, showing no toxicity until 50 μM for compounds BIGI 4b, BIGI 4d, and BIGI 5b and until 100 μM for compound BIGI 5d.
Treatment of stable ARE-luciferase reporter cells with the tested compounds and evaluation of the cellular viability: The NRF2/ARE-luciferase reporter HEK293 stable cell line was seeded and treated as described for the luciferase activity determination, except that transparent culture plates were used instead of white plates. After 24 h of incubation with the tested compounds, the percent of cell viability was measured using MTT assay.

Nrf2-ARE [5] = test system: Nrf2-ARE; parameters: method as in PMID 31838896; conditions: cited from earlier work

Chain of eqBuChE (BuChE from equine serum) (P81908 whole entry): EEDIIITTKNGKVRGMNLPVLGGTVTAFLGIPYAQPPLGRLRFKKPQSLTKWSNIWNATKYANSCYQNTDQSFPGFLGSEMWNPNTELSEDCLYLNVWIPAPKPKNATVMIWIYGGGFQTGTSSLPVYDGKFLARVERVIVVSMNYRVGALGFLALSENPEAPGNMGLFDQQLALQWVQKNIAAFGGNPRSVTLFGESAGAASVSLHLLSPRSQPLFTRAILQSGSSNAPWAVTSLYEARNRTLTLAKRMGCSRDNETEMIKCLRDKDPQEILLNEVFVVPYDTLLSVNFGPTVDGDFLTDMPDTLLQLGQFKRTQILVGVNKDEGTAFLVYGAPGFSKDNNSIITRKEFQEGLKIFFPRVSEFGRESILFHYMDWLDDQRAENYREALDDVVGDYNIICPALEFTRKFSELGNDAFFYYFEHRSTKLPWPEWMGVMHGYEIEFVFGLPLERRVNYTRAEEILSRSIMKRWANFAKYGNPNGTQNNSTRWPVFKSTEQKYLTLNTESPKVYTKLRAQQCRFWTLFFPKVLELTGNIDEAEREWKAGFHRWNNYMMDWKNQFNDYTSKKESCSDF
T1 sequence (P22303 other isoform, or with tags, fused parts or gaps): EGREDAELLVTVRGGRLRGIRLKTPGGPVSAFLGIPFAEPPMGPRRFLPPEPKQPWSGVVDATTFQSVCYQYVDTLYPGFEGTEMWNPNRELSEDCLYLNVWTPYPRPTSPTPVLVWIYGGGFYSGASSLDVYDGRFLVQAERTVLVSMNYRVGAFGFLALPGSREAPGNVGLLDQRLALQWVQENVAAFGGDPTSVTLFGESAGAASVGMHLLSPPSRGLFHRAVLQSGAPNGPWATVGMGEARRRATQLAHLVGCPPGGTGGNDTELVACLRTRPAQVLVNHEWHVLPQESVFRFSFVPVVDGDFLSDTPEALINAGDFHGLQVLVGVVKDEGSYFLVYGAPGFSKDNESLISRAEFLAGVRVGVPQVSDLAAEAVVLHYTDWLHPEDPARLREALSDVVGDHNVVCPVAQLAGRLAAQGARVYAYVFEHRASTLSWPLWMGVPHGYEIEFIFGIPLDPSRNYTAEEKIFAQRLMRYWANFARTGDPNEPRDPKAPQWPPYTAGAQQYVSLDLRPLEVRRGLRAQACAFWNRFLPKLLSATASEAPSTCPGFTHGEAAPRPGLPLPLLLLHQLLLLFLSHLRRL

| SMILES | ORAC [1] | Calcium Antagonism (% Inhibition at 10 μM) (calcium channel) [%] | IC50 [2] [µM] | IC50 [3] [µM] | times less active than melatonin (ORAC) [1] [times] | Induction of the Nrf2 transcriptional pathway (Nrf2-ARE [4]) | CD (concentration required to double the specific luciferase reporter activity) (Nrf2-ARE [4]) | Cytotoxicity: no toxicity until concentration (AREc32 cells) [µM] | fold less active than Donepezil (hAChE) [3] [fold] | fold less active than TBHQ (CD) (Nrf2-ARE [4]) [fold] | times more active than melatonin (CD) (Nrf2-ARE [4]) [times] | CD (concentration required to double the specific luciferase reporter activity) (Nrf2-ARE [4]; listed as 5d) [µM] | CD (Nrf2-ARE [5]) [µM] |
| --- | --- | --- | --- | --- | --- | --- | --- | --- | --- | --- | --- | --- | --- |
| C#CCOc1ccc(C2NC(=O)N(CC3CCN(Cc4ccccc4)CC3)C(C)=C2C(=O)OCC)cc1 (stereo not shown) [BIGI 4a, Ethyl 1-((1-benzylpiperidin-4-yl)methyl)-6-methyl-2-oxo-4-(4-(prop-2-yn-1-yloxy)phenyl)-1,2,3,4-tetrahydropyrimidine-5-carboxylate] | 1.44 ± 0.06 TE | 45 ± 11 | 31.2 ± 1.7 | > 1 | – | – | – | – | – | – | – | – | – |
| C#CCOc1ccc(C2NC(=O)N(CCC3CCN(Cc4ccccc4)CC3)C(C)=C2C(=O)OCC)cc1 (stereo not shown) [BIGI 4b, Ethyl 1-(2-(1-benzylpiperidin-4-yl)ethyl)-6-methyl-2-oxo-4-(4-(prop-2-yn-1-yloxy)phenyl)-1,2,3,4-tetrahydropyrimidine-5-carboxylate] | 1.60 TE and 1.60 ± 0.15 TE | 67 ± 10 | 4.78 ± 0.58 | 0.342 ± 0.064 | ~1.4 | able to successfully induce the Nrf2 transcriptional pathway | 7.1 µM and 7.1 ± 0.8 µM | 50 | 27 | – | – | – | – |
| C#CCCOc1ccc(C2NC(=O)N(CC3CCN(Cc4ccccc4)CC3)C(C)=C2C(=O)OCC)cc1 (stereo not shown) [BIGI 4c, Ethyl 1-((1-benzylpiperidin-4-yl)methyl)-4-(4-(but-3-yn-1-yloxy)phenyl)-6-methyl-2-oxo-1,2,3,4-tetrahydropyrimidine-5-carboxylate] | 0.98 ± 0.03 TE | 40± 13 | > 10 | > 1 | – | – | – | – | – | – | – | – | – |
| C#CCCOc1ccc(C2NC(=O)N(CCC3CCN(Cc4ccccc4)CC3)C(C)=C2C(=O)OCC)cc1 (stereo not shown) [BIGI 4d, Ethyl 1-(2-(1-benzylpiperidin-4-yl)ethyl)-4-(4-(but-3-yn-1-yloxy)phenyl)-6-methyl-2-oxo-1,2,3,4-tetrahydropyrimidine-5-carboxylate] | 1.85 TE and 1.85 ± 0.16 TE | 50 ± 13 | 6.63 ± 0.71 | 0.462 ± 0.04 | ~1.4 | able to successfully induce the Nrf2 transcriptional pathway | 7.7 µM and 7.7 ± 2.9 µM | 50 | – | – | – | – | – |
| C#CCOc1ccc(C2NC(=S)N(CC3CCN(Cc4ccccc4)CC3)C(C)=C2C(=O)OCC)cc1 (stereo not shown) [BIGI 5a, Ethyl 1-((1-benzylpiperidin-4-yl)methyl)-6-methyl-4-(4-(prop-2-yn-1-yloxy)phenyl)-2-thioxo-1,2,3,4-tetrahydropyrimidine-5-carboxylate] | 1.35 ± 0.04 TE | 46 ± 18 | 7.64 ± 0.79 | > 1 | – | – | – | – | – | – | – | – | – |
| C#CCOc1ccc(C2NC(=S)N(CCC3CCN(Cc4ccccc4)CC3)C(C)=C2C(=O)OCC)cc1 (stereo not shown) [BIGI 5b, Ethyl 1-(2-(1-benzylpiperidin-4-yl)ethyl)-6-methyl-4-(4-(prop-2-yn-1-yloxy)phenyl)-2-thioxo-1,2,3,4-tetrahydropyrimidine-5-carboxylate] | 1.41 ± 0.06 TE | 74 ± 16 | 5.43 ± 0.24 | 0.352 ± 0.015 | – | able to successfully induce the Nrf2 transcriptional pathway | 13.5 µM and 13.5 ± 9.1 µM | 50 | 27 | – | – | – | – |
| C#CCCOc1ccc(C2NC(=S)N(CC3CCN(Cc4ccccc4)CC3)C(C)=C2C(=O)OCC)cc1 (stereo not shown) [BIGI 5c, Ethyl 1-((1-benzylpiperidin-4-yl)methyl)-4-(4-(but-3-yn-1-yloxy)phenyl)-6-methyl-2-thioxo-1,2,3,4-tetrahydropyrimidine-5-carboxylate] | 1.75 TE and 1.75 ± 0.06 TE | 63 ± 18 | 33.8 ± 7.89 | > 1 | ~1.4 | – | – | – | – | – | – | – | – |
| C#CCCOc1ccc(C2NC(=S)N(CCC3CCN(Cc4ccccc4)CC3)C(C)=C2C(=O)OCC)cc1 (stereo not shown) [BIGI 5d, Ethyl 1-(2-(1-benzylpiperidin-4-yl)ethyl)-4-(4-(but-3-yn-1-yloxy)phenyl)-6-methyl-2-thioxo-1,2,3,4-tetrahydropyrimidine-5-carboxylate] | 1.57 ± 0.13 TE | 68 ± 12 | 8.54 ± 0.71 | 1.271 ± 0.005 | – | able to successfully induce the Nrf2 transcriptional pathway | 33.4 ± 4.8 µM | 100 | – | 42 | 2 | 33.4 | – |
| COc1ccc2[nH]cc(CCNC(C)=O)c2c1 [Melatonin] | – | – | – | – | – | – | – | – | – | – | – | – | 60 |
| COCCOC(=O)C1=C(C)NC(C)=C(C(=O)OC(C)C)C1c1cccc([N+](=O)[O-])c1 (stereo not shown) [Nimodipine, reference compound] | – | 50± 10 | – | – | – | – | – | – | – | – | – | – | – |
| CC(C)(C)c1cc(O)ccc1O [TBHQ, reference compound] | – | – | – | – | – | – | 0.8 µM and 0.8 ± 0.2 µM | – | – | – | – | – | – |
